According to ChEMBL document CHEMBL1131352, “Identification of a series of 1,2,3,4-tetrahydroisoquinolinyl-benzamides with potential anticonvulsant activity” (Bioorg Med Chem Lett, 1998):

Key:
Mus musculus [1] = organism: Mus musculus; test: Anticonvulsant activity was determined in mouse maximal electroshock seizure threshold (MEST) model at 1 hour post dose.; type: functional
Rattus norvegicus [2] = organism: Rattus norvegicus; test: Anticonvulsant activity was determined in rat maximal electroshock seizure threshold (MEST) model at 4 hour post dose.; type: functional
SB-204269 binding site [3] = test: Inhibition of [3H]SB-204269 binding in rat forebrain; type: tissue-based
Mus musculus [4] = organism: Mus musculus; test: Anticonvulsant activity was determined in mouse maximal electroshock seizure threshold (MEST) model at 1 hour post dose; type: functional
Rattus norvegicus [5] = organism: Rattus norvegicus; test: Anticonvulsant activity was determined in rat maximal electroshock seizure threshold (MEST) model at 4 hour post dose; type: functional
SB-204269 binding site [6] = test: Binding affinity for [3H]SB-204269 in rat forebrain; type: tissue-based

| SMILES | Increase (Mus musculus [1]) | Log Ki (SB-204269 binding site [3]) | also measured |
| --- | --- | --- | --- |
| COc1cc(C(C)(C)C)ccc1C(=O)Nc1cccc2c1CCN(C)C2 | 140% | -7.7 | Increase (Rattus norvegicus [2]): 330% |
| CCc1cc(OC)c(C(=O)Nc2cccc3c2CCN(C)C3)cc1Cl | 100% | -7.9 | – |
| COc1cc(C)c(Cl)cc1C(=O)Nc1cccc2c1CCN(C)C2 | 50% | -7.6 | – |
| COc1cc(C(C)(C)C)ccc1C(=O)Nc1ccc2c(c1)CCN(C)C2 | 4% | -6.4 | – |
| COc1cc(N)c(Cl)cc1C(=O)Nc1cccc2c1CN(C)CC2 | – | -6.1 | – |
| COc1cc(Cl)ccc1C(=O)Nc1cccc2c1CCN(C)C2 | – | -6.1 | – |
| COc1c(Cl)cc(Cl)cc1C(=O)Nc1cccc2c1CCN(C)C2 | – | -5.4 | – |
| CN1CCc2c(cccc2NC(=O)c2ccc(C(C)(C)C)cc2)C1 | – | -6 | – |
| CCc1ccc(C(=O)Nc2cccc3c2CCN(C)C3)c(OC)c1 | 60% | -7.3 | – |
| COc1ccccc1C(=O)Nc1cccc2c1CCN(C)C2 | – | -5.8 | – |
| COc1cc(C(C)(C)C)c(Cl)cc1C(=O)Nc1cccc2c1CCN(C)C2 | – | -6.9 | – |
| COc1ccc(Cl)cc1C(=O)Nc1cccc2c1CCN(C)C2 | 20% | -7 | – |
| CN1CCc2c(cccc2NC(=O)c2cccc(Cl)c2)C1 | – | < -5 | – |
| COc1cc([N+](=O)[O-])c(Cl)cc1C(=O)Nc1cccc2c1CCN(C)C2 | – | -6.8 | – |
| COc1ccc(Cl)cc1C(=O)Nc1ccc2c(c1)CN(C)CC2 | 4% | -7.2 | – |
| COc1cc(N)c(Cl)cc1C(=O)Nc1cccc2c1CCN(C)C2 | 25% | -7.8 | – |
| COc1cc(C(C)(C)C)ccc1C(=O)Nc1ccc2c(c1)CN(C)CC2 | 130% | -7.6 | Increase (Rattus norvegicus [2]): 110% |
| CC(=O)c1ccc2c(c1)[C@H](NC(=O)c1ccc(F)cc1)[C@@H](O)C(C)(C)O2 [CARABERSAT] | – | – | Increase (Mus musculus [4]): 100%; Increase (Rattus norvegicus [5]): 570%; Log Ki (SB-204269 binding site [6]): -7.3 |
